Test results from patent US20120322153A1, “REPROGRAMMING A CELL BY ACTIVATION OF THE ENDOGENOUS TRANSCRIPTION FACTOR NETWORK” (NUPOTENTIAL, INC., priority 2009, published 2012).
Read-outs that look alike come from different tables or passages of the source.

Assays:
HDAC = settings: order of magnitude of affinity for HDAC; cited from earlier work
[1] = tested on: Human adipose tissue derived adult stem cells; assay: ES cell-like colony formation of hADS cells pre-treated with HDAC inhibitor, then OSKM lentivirus; format: cell-based
Procedure: Human adipose tissue derived adult stem cells were maintained at 37° C. in 95% humidity and 5% CO2 in Dulbecco's modified eagle medium (DMEM, Cell Application) containing 10% fetal bovine serum, 0.5% penicillin and streptomycin. Cells were grown, trypsinized and counted, then diluted in the above standard growth medium to achieve appropriate plating density (1×10^5 cells/well in 6 well plate, Corning) prior to HDAC inhibitor treatment.
Pre-treatment. […] The cell culture medium was changed every other day with new treatment.
Lentivirus infection. Lentivirus that over-expresses mouse Oct-4, Sox2, c-Myc, and Klf4 was purchased from Millipore, (Billerica, Mass.). One day before lentivirus infection, human adipose tissue-derived cells with or without HDAC inhibitor pretreatment were trypsinized and plated at a density of 1×10^5 cells/well in a 6 well plate (Corning) using standard growth medium described above. The following day, the medium was replaced with 1 ml of fresh medium containing 0.6 ug/ml of polybrene (Sigma-Aldrich, St. Louis, Mo.), and thawed lentivirus (MOI 75) was added directly to the wells following the manufacturer's instruction. Cells were maintained at 37° C. in 95% humidity and 5% CO2 incubator overnight. On the next day, lentiviral infection was repeated after cells were washed 3 times with 1×PBS. Lentivirus infected cells were maintained in the standard growth medium for 4˜5 days and trypsinized, and plated on irradiated MEF feeder layers (ATCC, Manassas, Va.) with mTeSR medium (Stem Cell Technology).

[2] = tested on: Human adipose tissue derived adult stem cells; assay: Immunohistochemistry for Sox-2 and Oct4 in ES cell-like colonies from hADS cells; format: cell-based; settings: pre-treatment with TSA
Procedure: Cells were fixed with fixative (Ethanol:acetic acid:H2O=7:2:1) for 10 minutes. After rinse 3 times with 10% FBS in 1×PBS for 5 min each and cells were incubated I hrs with primary antibodies for Oct4 (1:200 dilution, Abeam), or Sox2 (1:200 dilution, Abeam) in 10% FBS containing 0.2% saponin (Sigma) and following alexaFluor-conjugated secondary antibody (1:200 dilution, Invitrogen).

[3] = tested on: Mouse embryonic fibroblasts; settings: Recombinant protein, cited from earlier work
Human fibroblasts = settings: Retroviral infection, cited from earlier work
mouse embryos = settings: mice, when properly dosed; cited from earlier work
[4] = used as antiepileptic drug during pregnancy; a few percent of born children; cited from earlier work
BJFs (ATCC) = assay: HDAC and DNMT1 gene expression in BJFs treated with VPA; format: cell-based
Procedure: FIG. 4C is a bar graph reporting HDAC and DNMT1 gene expression in BJFs (ATCC) treated with […] Valproic acid (VPA) for 7 days.
Expression levels for shRNA-targeted genes and pluripotency transcription factor were quantified by real-time RT-PCR. Briefly, total RNA was prepared from cultures using Trizol Reagent (Life Technology) and the RNeasy Mini RNA isolation kit (Qiagen) with DNase I digestion according to manufacturer's protocol. Total RNA (1 μg) from each sample was subjected to oligo(dT)-primed reverse transcription (Invitrogen) to cDNA. Real-time PCR reactions were performed with PCR master mix on a 7300 real-time PCR system (Applied Biosystems). For each sample, 1 μl of diluted cDNA (1:10) was added as template in the PCR reactions. Expression levels were compared to those in untreated and non-targeting shRNA control cells relative to cyclophillin.

[5] = 5 days pre-treatment, 9 days after OSKM viral infection
[6] = 5 days pre-treatment, 11 days after OSKM viral infection

| Compound | Affinity Range (HDAC) | other results |
| --- | --- | --- |
| O=C(CCCCCCCC(=O)NO)NO [ABHA (azeleic bishydroxamic acid), azeleic bishydroxamic acid] | uM |  |
| CCCC(=O)OCOC(=O)C(C)(C)C [AN-9, Pivaloyloxymethyl butyrate, Pivaloyloxymethyl butyrate] | uM |  |
| CCCC(=O)[O-].[Na+] [Butyrate/Sodium Butyrate, Sodium Butyrate] | mM |  |
| CC(=O)Nc1ccc(C(=O)Nc2ccccc2N)cc1 [CI-994(N-acetyl dinaline), N-acetyl dinaline] | nM |  |
| C=CCSSCC=C [Diallyl disulfide (DADS), Diallyl disulfide] | uM |  |
| CCN(CC)Cc1ccc2cc(COC(=O)Nc3ccc(C(=O)NO)cc3)ccc2c1 [ITF2357] | nM |  |
| Nc1ccccc1NC(=O)c1ccc(CNc2nccc(-c3cccnc3)n2)cc1 [MGCD0103] | nM |  |
| Nc1ccccc1NC(=O)c1ccc(CNC(=O)OCc2cccnc2)cc1 [MS-275 (same as MS-27-275)] | nM |  |
| O=C(/C=C/c1ccc(CN(CCO)CCc2c[nH]c3ccccc23)cc1)NO [NVP-LAQ824] | nM |  |
| O=C(/C=C/c1cccc(S(=O)(=O)Nc2ccccc2)c1)NO [PDX-101] | uM |  |
| S=C=NCCCCc1ccccc1 [Phenylbutyl isothiocyanate] | uM |  |
| O=C(CCCCCCC(=O)Nc1cccnc1)NO [Pyroxamide] | uM |  |
| O=C(CCCCCCC(=O)NO)NO [SBHA (suberic bishydroxamate), suberic bishydroxamate] | uM |  |
| CC(=O)N[C@@H](CSC(=S)NCCCC[S+](C)[O-])C(=O)O (some centres unmarked) [SFN-N-acetylcysteine (SFN-NAC), SFN-N-acetylcysteine] | uM |  |
| C[S+]([O-])CCCCNC(=S)SC[C@H](N)C(=O)O (some centres unmarked) [SFN-cysteine (SFN-Cys), SFN-cysteine] | uM |  |
| CN(C)c1ccc(C(=O)NCc2ccc(/C=C/C(=O)NO)cc2)cc1 [SK-7041] | nM |  |
| O=C(/C=C/c1ccc(CNC(=O)c2ccc(N3CCCC3)cc2)cc1)NO [SK-7068] | nM |  |
| O=C(CCCCCN1C(=O)c2cccc3cccc(c23)C1=O)NO [Scriptaid] |  | ES cell-like colony formation [1, 5]: ES cell-like colony formation was observed; ES cell-like colony formation [1, 6]: multiple colonies displaying morphologies consistent with embryonic stem cells or reprogrammed cells were observed |
| C[S+]([O-])CCCCN=C=S (centres unmarked) [Sulforaphane (SFN), Sulforaphane] | uM |  |
| CC(/C=C/C(=O)NO)=C\[C@@H](C)C(=O)c1ccc(N(C)C)cc1 [TSA, Trichostatin A] | nM | ES cell-like colony formation [1, 5]: multiple colonies displaying morphologies consistent with embryonic stem cells or reprogrammed cells were observed; ES cell-like colony formation [1, 6]: ES cell-like colony formation was observed; Increase in colony formation vs no pretreatment ([1]; 5 days pre-treatment, then OSKM lentivirus): two-fold; Number of ES cell-like colonies ([1]; First Experiment): 24; Number of ES cell-like colonies ([1]; Second Experiment): 21; Somatic cell reprogramming efficiency (number of formed colonies) ([1]; pre-treatment prior to four-factor transfection, TSA 1 μM): increased; Sox-2 and Oct4 expression in ES cell-like colonies [2]: showed Sox-2 and Oct4 expression |
| CCCC(CCC)C(=O)O [VPA, Valproic acid] | mM | Efficiency ([3]; 3 iPS factors (OSK) + VPA): 0.002%; Efficiency ([3]; 4 iPS factors (OSKM) + VPA): 0.006%; ES cell-like colony formation [1, 5]: Colonies displaying characteristics of embryonic stem cells or reprogrammed cells were observed; ES cell-like colony formation [1, 6]: Colonies displaying characteristics of embryonic stem cells or reprogrammed cells were observed; Efficiency (Human fibroblasts; 2 iPS factors (OS) + VPA): 0.001%; Efficiency (Human fibroblasts; 3 iPS factors (OSK) + VPA): 1%; Teratogenicity (mouse embryos): teratogenic in the majority of mouse embryos; Birth defects (neural tube closure defects and other malformations) [4]: may induce birth defects; DNMT1 gene expression (BJFs (ATCC); BJFs, 500 nM VPA, 7 days, vs control (MC) cells, P<0.005): significantly up regulated; HDAC1 gene expression (BJFs (ATCC); BJFs, 500 nM VPA, 7 days, vs control (MC) cells, P<0.01): significantly up regulated; SIRT4 gene expression (BJFs (ATCC); BJFs, 500 nM VPA, 7 days, vs control (MC) cells, P<0.05): significantly up regulated; Compensatory expression of HDACs (HDAC9, HDAC5, HDAC11, SIRT4, SIRT5) (BJFs (ATCC); treatment of cells with VPA (FIG. 4C)): induced |
| O=C(/C=C/c1cccc(C(=O)NO)c1)NO [m-Carboxycinnamic acid bishydroxamic acid] | uM |  |
| Oxamflatin | uM |  |
| Suberoylanilide hydroxamic acid | uM |  |
